The subject of test [1] is Bcl-2.
Test [2] relates to Bcl-2. In words: In vivo ubiquitination assay of Bcl-2 in MEFs. In kind it is cell-based, mouse. The following applies: WT MEFs, transfected, MG132 for 6 h. The procedure: (§1) Cells were transiently transfected with different constructs as detailed herein and treated with MG132 (20 μM, Alexis) for 6 hours. The medium was aspirated and the cells were washed with 1×PBS at room temperature. The cells were scraped at room temperature in 100 μl of denaturation buffer (1% SDS, 140 mM NaCl, 50 mM Tris-HCl pH 7.4) containing protease inhibitor cocktail (Complete, Roche) and 10 mM NEM to preserve ubiquitine chains. The solution was transferred to 2 ml eppendorf tube. The cells were homogenized by passing through a 25-gauge needle (20 times), and boiled for 10 min after vigorous vortexing. An amount of 400 μl of renaturation buffer (2% TritonX-100, 140 mM NaCl, 50 mM Tris-HCl pH 7.4) containing protease inhibitor cocktail (Complete, Roche) and 10 mM NEM was added to the lysate. After 15 min of centrifugation (10,000 g, 4°), the supernatant was transferred into a clean eppendorf tube. The protein concentration was determined using BCA Protein Assay Kit (Pierce). Western blot analyses were performed following immunoprecipitation with particular antibody.
The possible in vivo ubiquitination of Bcl-2 occurring upon apoptotic induction was next tested in immortalized WT MEFs transiently transfected with Bcl-2, XIAP and ubiquitin and treated with 20 μM MG132 for 6 h. […]

The subject of test [3] is Bcl-2. In words: In vivo ubiquitination assay of Bcl-2 in HeLa cells. The class given is cell-based, human. As to conditions: HeLa cells transfected with Bcl-2, XIAP and ubiquitin, 20 μM MG132 6 h. The procedure:
as §1
More specifically, HeLa or ARTS KD HeLa cells were transiently transfected with Bcl-2, XIAP and ubiquitin and treated with 20 μM MG132 for 6 h. […] The cells were harvested and subjected to immunoprecipitation (IP) using anti-Bcl-2 antibodies, followed by immune-blotting (IB) with anti-Bcl-2 antibodies.

Another test has as its system HeLa cells. In words: Immunofluorescence localization of Bcl-2 (mitochondria vs cytosol) after STS. In kind it is cell-based, human. The method, then: To further determine the cellular localization of Bcl-2 under apoptotic and non-apoptotic conditions, Immunofluorescence assay was conducted.
Cells in which Bcl-2 is detected at mitochondria (co-localize with MitoTracker), or at the cytosol (showing diffused pattern of staining) were counted.

In the next test the test system is BT-549 and HeLa cells. The test is described as follows: Cell fractionation: release of Bcl-2 and ARTS to the cytosol after STS. The class given is cell-based, human. As to conditions: 0.6 μM STS. The method, then: Cells were re-suspended in homogenization buffer [20 mM HEPES-KOH, pH 7.5, 10 mM KCl, 1.5 mM MgCl2, 1 mM sodium EDTA, 1 mM sodium EGTA and 1 mM DTT in the presence of 250 mM sucrose and protease inhibitors (Mini-Complete™, Roche)]. Cell homogenization was performed using a 26 G needle (Sterican® 0.45′25 mm, 26 G′1″, Gr.18, B. Braun #46507683) and 1 mL syringe (1 mL HSW NORMJECT®, Henke-Sass, Wolf GmbH #4010.200V0) using 20 strokes. Homogenates were centrifuged at 500×g for 5 min at 4° C., and the supernatant was centrifuged at 10000×g for 20 min to obtain mitochondria. The supernatant was considered as a cytosolic fraction.
Briefly, cells were harvested and centrifuged at 300×g for 10 min, washed in TBS 2.5 mM pH 7.5, and re-pelletted. Cells were permeabilized for 5 min on ice with cytosolic extraction buffer (250 mM sucrose, 70 mM KCl, 137 mM NaCl, 4.3 mM Na2HPO4, 1.4 mM KH2PO4 pH 7.2, 1× complete protease inhibitor cocktail, Roche) containing freshly prepared digitonin (200 μg/ml, D-5628, Sigma). Cytosolic fraction was isolated by collecting the supernatant after centrifugation at 1000×g for 5 min at 4° C. Cytosolic fraction was separated on a 12% acrylamide gel and transferred to nitrocellulose membranes.
It has been recently shown by some of the inventors that similarly to Bcl-2, ARTS resides at the MOM of living cells (Edison et al., 2012b). […]

From patent US11230579B2, “Method of treating BCL-2 over-expressing disorders using arts containing a BH3-like domain” (CARMEL-HAIFA UNIVERSITY ECONOMIC CORPORATION LTD., priority 2012, dated 2022) come the findings set out here.

“Also recorded” adds a separate entry of the source. A value given as a limit tells only on which side of the number the result lay.

On to `CN[C@@H]1C[C@H]2O[C@@](C)([C@@H]1OC)n1c3ccccc3c3c4c(c5c6ccccc6n2c5c31)C(=O)NC4` [STS, staurosporine], for which, in the test on Bcl-2 [1] (HeLa cells, 60 and 180 minutes treatments with STS), the Bcl-2 levels result is recorded as “decrease in Bcl-2 levels”. The “Bcl-2 levels upon induction of apoptosis” value with Bcl-2 [1] (different cell lines and mouse embryonic fibroblasts (MEFs), Western blot) is recorded as “down regulated”. Moreover, in the test with Bcl-2 [2], the “polyubiquitinated forms of Bcl-2 following apoptotic induction” value is “accumulation of polyubiquitinated forms of Bcl-2; also recorded: accumulation of poly-ubiquitinated forms of Bcl-2; also recorded: poly-ubiquitinated forms of Bcl-2 detected” and the “time of appearance of Bcl-2 polyubiquitinated forms” value is no more than 30 min. Moreover, the “time at which poly-ubiquitinated forms of Bcl-2 are seen” value with Bcl-2 [3] (1.5 μM STS) is no more than 30 min. In the test with Bcl-2 [3] (1.5 μM STS 0.5 h), the “poly-ubiquitinated forms of Bcl-2 after induction of apoptosis” value was “significant accumulation of poly-ubiquitinated forms of Bcl-2”. In the test with HeLa cells (HeLa cells transfected with Bcl-2, 180 minutes of STS treatment), the “cells exhibiting Bcl-2 in the cytosol” value is given as 94%. The “cells exhibiting Bcl-2 in their cytosol” value in the test on HeLa cells (HeLa cells transfected with Bcl-2, sixty minutes following STS treatment) stood at 63%. Moreover, the “time at which Bcl-2 and ARTS are found in the cytosol after apoptosis induction” value in the test on BT-549 and HeLa cells fell in the range of 2 to 15 min.
